Experiments:
medaka Esr1 (mEsr1) [1] = target: T1, medaka Esr1 (mEsr1) (Oryzias latipes, UniProt P50241); assay: cell-based; parameters: species or system Japanese medaka (Oryzias latipes)
T1 sequence (P50241 1-620): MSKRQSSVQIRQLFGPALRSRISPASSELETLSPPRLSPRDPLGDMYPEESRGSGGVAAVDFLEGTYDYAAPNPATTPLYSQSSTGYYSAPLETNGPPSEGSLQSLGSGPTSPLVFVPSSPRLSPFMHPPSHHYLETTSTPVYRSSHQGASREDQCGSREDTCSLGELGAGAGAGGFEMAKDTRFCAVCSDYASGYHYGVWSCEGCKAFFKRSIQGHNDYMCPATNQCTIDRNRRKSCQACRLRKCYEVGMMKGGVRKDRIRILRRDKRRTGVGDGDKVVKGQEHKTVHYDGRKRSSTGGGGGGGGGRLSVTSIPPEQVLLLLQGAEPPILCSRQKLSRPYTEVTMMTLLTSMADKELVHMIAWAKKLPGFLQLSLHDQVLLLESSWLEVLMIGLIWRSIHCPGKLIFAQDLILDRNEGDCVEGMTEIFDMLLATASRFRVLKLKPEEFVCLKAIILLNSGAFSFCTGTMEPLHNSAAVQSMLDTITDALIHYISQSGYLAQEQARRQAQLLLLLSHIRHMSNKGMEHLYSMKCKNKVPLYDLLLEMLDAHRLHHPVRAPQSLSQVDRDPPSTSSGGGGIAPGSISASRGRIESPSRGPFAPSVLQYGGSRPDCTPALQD

medaka Esr1 (mEsr1) [2] = target: T1, medaka Esr1 (mEsr1); assay: Medaka Esr1 reporter gene assay, antagonist assay; type: cell-based, Japanese medaka (Oryzias latipes); details: E2 spiked at 1.0 nM (B); MAC = 1.0 × 10^−4 M
medaka ARβ (mArβ) [3] = target: T2, medaka ARβ (mArβ) (Oryzias latipes, UniProt D1MV73); assay: Medaka ARβ reporter gene assay, agonist assay; type: cell-based, Japanese medaka (Oryzias latipes); details: MAC = 1.0 × 10^−4 M
T2 sequence (D1MV73 1-744): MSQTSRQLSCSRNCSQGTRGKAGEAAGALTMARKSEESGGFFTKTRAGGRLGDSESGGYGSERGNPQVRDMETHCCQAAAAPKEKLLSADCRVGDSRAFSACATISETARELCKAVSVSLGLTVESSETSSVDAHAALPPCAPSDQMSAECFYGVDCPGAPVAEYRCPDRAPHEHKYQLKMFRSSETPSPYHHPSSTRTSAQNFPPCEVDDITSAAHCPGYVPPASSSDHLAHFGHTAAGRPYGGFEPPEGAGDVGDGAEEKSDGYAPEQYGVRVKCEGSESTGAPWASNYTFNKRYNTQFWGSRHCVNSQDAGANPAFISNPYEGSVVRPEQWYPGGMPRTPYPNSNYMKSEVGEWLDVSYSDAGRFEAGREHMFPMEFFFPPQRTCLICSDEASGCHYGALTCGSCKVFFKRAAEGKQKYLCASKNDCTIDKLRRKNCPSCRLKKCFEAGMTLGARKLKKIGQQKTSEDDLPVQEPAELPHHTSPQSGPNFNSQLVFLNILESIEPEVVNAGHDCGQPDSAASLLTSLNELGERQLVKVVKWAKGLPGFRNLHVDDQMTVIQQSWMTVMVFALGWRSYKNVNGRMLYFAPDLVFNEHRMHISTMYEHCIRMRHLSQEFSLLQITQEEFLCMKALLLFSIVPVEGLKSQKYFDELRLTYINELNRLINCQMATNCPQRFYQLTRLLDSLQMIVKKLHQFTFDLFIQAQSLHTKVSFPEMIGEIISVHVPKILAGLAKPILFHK

medaka ARβ (mArβ) [4] = target: T2, medaka ARβ (mArβ); assay: Medaka ARβ reporter gene assay, antagonist assay; type: cell-based, Japanese medaka (Oryzias latipes); details: 11‐KT spiked at 50 nM (D); MAC = 1.0 × 10^−4 M
[5] = tested on: Japanese medaka (Oryzias latipes); assay: Fish Short‐Term Reproduction Assay; type: in vivo; details: for GSI Female / GSI Male / HSI Female / HSI Male / Length Female / Length Male / Weight Female / Weight Male: completion of exposure
[6] = 9.75 mg/L measured, 21 d, sig. ↓ vs control
[7] = measured concentration 0.357 mg/L
[8] = measured concentration 1.90 mg/L
[9] = measured concentration 9.75 mg/L

COC(=O)c1ccc(O)cc1 [MPB, 4‐Hydroxybenzoate methyl]
EC50 (medaka Esr1 (mEsr1) [1]): 70 µM | In vitro positive: Esr (medaka Esr1 (mEsr1) [1]; mode of action in which EC50 or PC10 was obtained in RGA): Esr | Antagonistic activity (medaka Esr1 (mEsr1) [2]): NE (MAC = 1.0 × 10^−4 M)^(B) | Agonistic activity (medaka ARβ (mArβ) [3]): NE (MAC = 1.0 × 10^−4 M) | Antagonistic activity (medaka ARβ (mArβ) [4]): NE (MAC = 1.0 × 10^−4 M)^(D) | Fertility rate ([5]; 0.357 mg/L measured, 21 d): 93 ± 2.9% | Hepatic VTG, female ([5]; 0.357 mg/L measured, 21 d): 3,450 ± 724 ng/mg‐liver | Hepatic VTG, male ([5]; 0.357 mg/L measured, 21 d): 1.7 ± 1.2 ng/mg‐liver | Mortality ([5]; 0.357 mg/L measured, 21 d): 0.0% | Mortality, number of dead fish ([5]; 0.357 mg/L measured, 21 d): 0 | Number of fertilized eggs (per female per day) ([5]; 0.357 mg/L measured, 21 d): 27 ± 3.5 | Number of total eggs (per female per day) ([5]; 0.357 mg/L measured, 21 d): 29 ± 3.3 | SSC female (joint plates with papillary processes) ([5]; 0.357 mg/L measured, 21 d): 0 ± 0 | Fertility rate ([5]; 1.90 mg/L measured, 21 d): 88 ± 7.7% | Hepatic VTG, female ([5]; 1.90 mg/L measured, 21 d): 3,890 ± 992 ng/mg‐liver | Mortality ([5]; 1.90 mg/L measured, 21 d): 0.0% | Mortality, number of dead fish ([5]; 1.90 mg/L measured, 21 d): 0 | Number of fertilized eggs (per female per day) ([5]; 1.90 mg/L measured, 21 d): 24 ± 3.0 | Number of total eggs (per female per day) ([5]; 1.90 mg/L measured, 21 d): 28 ± 3.3 | SSC female (joint plates with papillary processes) ([5]; 1.90 mg/L measured, 21 d): 0 ± 0 | SSC male (joint plates with papillary processes) ([5]; 1.90 mg/L measured, 21 d): 99 ± 12 | Hepatic VTG, male ([5]; 1.90 mg/L measured, 21 d, sig. ↑ vs control): 153 ± 113 ng/mg‐liver | Hepatic VTG, female ([5]; 9.75 mg/L measured, 21 d): 3,930 ± 963 ng/mg‐liver | Mortality ([5]; 9.75 mg/L measured, 21 d): 13% | Mortality, number of dead fish ([5]; 9.75 mg/L measured, 21 d): 3 | SSC female (joint plates with papillary processes) ([5]; 9.75 mg/L measured, 21 d): 0 ± 0 | SSC male (joint plates with papillary processes) ([5]; 9.75 mg/L measured, 21 d): 93 ± 15 | Hepatic VTG, male ([5]; 9.75 mg/L measured, 21 d, sig. ↑ vs control): 2,640 ± 1720 ng/mg‐liver | Fertility rate [5, 6]: 78 ± 4.8% | Number of fertilized eggs (per female per day) [5, 6]: 16 ± 2.3 | Number of total eggs (per female per day) [5, 6]: 20 ± 2.2 | Fecundity, number of total eggs (in words) ([5]; 21 d): statistically significant decrease | LOEC, elevated hepatic VTG in males ([5]; 21 d): 1.90 mg/L | Daily fecundity on the first day ([5]; Figure 3C): less than 10 eggs/female | LOECREPRO ([5]; LOEC on reproduction (fecundity and/or fertility)): 9,750 μg/L | minimal effective concentration ([5]; Oryzias latipes, 504 h, read-out: LOECmVTG): 1.9 µg/mL | LOECREPRO (reduction in fecundity or fertility) ([5]; concentrations without overt toxicity): 9,750 μg/L | LOECTOX ([5]; lowest observed effect concentration on mortality): ND (>9,750) μg/L | GSI Female [5, 7]: 11.0 ± 1.2% | GSI Male [5, 7]: 0.74 ± 0.18% | HSI Female [5, 7]: 4.4 ± 0.44% | HSI Male [5, 7]: 2.1 ± 0.16% | Length Female [5, 7]: 37.0 ± 1.3 mm | Length Male [5, 7]: 36.0 ± 0.5 mm | Weight Female [5, 7]: 589 ± 39 mg | Weight Male [5, 7]: 514 ± 28 mg | GSI Female [5, 8]: 11.0 ± 0.9% | GSI Male [5, 8]: 0.81 ± 0.06% | HSI Female [5, 8]: 4.7 ± 0.59% | HSI Male [5, 8]: 2.4 ± 0.21% | Length Female [5, 8]: 36.2 ± 1.2 mm | Length Male [5, 8]: 36.4 ± 1.3 mm | Weight Female [5, 8]: 574 ± 27 mg | Weight Male [5, 8]: 530 ± 47 mg | GSI Female [5, 9]: 9.8 ± 0.9% | GSI Male [5, 9]: 0.69 ± 0.15% | HSI Female [5, 9]: 5.4 ± 0.38% | HSI Male [5, 9]: 2.3 ± 0.60% | Length Female [5, 9]: 36.6 ± 1.4 mm | Length Male [5, 9]: 36.2 ± 1.1 mm | Weight Female [5, 9]: 603 ± 47 mg | Weight Male [5, 9]: 504 ± 62 mg
